Earlier results as cited in patent US20220031861A1, “COMBINATION THERAPY OF DIFFUSE LARGE B-CELL LYMPHOMA COMPRISING AN ANTI-CD79B IMMUNOCONJUGATES, AN ALKYLATING AGENT AND AN ANTI-CD20 ANTIBODY” (priority 2018, published 2022).

Test system: R/R DLBCL
[1] = R/R DLBCL, monotherapy and combined with an anti-CD20 monoclonal antibody

Polatuzumab vedotin
complete remission (CR) rates [1]: 0-15% | overall response rates (ORR) [1]: 13-56% | CR rate reported previously (in combination with an anti-CD20 monoclonal antibody (Morschhauser et al. 2014, ROMULUS)): 15%
